Assay [1] concerns the target T1, Muscarinic acetylcholine receptor M4 (Mus musculus, UniProt P32211).
T1 sequence (P32211 whole entry): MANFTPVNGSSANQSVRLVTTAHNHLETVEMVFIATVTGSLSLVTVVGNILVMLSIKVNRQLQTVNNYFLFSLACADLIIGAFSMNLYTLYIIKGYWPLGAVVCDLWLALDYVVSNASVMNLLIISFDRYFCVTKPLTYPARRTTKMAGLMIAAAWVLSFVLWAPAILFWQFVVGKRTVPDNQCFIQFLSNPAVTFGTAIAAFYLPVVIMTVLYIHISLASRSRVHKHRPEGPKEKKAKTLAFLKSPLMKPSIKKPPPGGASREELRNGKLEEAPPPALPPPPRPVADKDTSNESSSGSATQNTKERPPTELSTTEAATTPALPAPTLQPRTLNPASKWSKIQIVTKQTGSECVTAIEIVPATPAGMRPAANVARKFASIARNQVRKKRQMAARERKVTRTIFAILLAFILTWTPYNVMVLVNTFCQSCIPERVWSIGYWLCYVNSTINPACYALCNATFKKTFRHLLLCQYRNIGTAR

For assay [2], the target named is Muscarinic acetylcholine receptor M3 (Rattus norvegicus, UniProt P08483).
Assay [3] deals with T2, Muscarinic acetylcholine receptor M4 (Rattus norvegicus, UniProt P08485).
T2 sequence (P08485 whole entry): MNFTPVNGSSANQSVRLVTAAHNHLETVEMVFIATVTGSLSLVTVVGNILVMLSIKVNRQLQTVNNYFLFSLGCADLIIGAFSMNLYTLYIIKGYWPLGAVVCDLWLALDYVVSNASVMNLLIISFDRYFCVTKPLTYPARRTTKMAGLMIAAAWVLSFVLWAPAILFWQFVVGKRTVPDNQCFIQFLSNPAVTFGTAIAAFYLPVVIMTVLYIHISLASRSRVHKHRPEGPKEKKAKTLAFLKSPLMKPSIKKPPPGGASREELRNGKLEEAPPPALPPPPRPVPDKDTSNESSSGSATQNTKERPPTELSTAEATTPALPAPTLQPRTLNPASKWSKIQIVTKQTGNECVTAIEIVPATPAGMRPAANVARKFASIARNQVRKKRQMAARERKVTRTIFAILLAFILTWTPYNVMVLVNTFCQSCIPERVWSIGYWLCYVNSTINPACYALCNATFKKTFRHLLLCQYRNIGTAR

For assay [4], the target named is T3, Muscarinic acetylcholine receptor M2 (Rattus norvegicus, UniProt P10980).
T3 sequence (P10980 whole entry): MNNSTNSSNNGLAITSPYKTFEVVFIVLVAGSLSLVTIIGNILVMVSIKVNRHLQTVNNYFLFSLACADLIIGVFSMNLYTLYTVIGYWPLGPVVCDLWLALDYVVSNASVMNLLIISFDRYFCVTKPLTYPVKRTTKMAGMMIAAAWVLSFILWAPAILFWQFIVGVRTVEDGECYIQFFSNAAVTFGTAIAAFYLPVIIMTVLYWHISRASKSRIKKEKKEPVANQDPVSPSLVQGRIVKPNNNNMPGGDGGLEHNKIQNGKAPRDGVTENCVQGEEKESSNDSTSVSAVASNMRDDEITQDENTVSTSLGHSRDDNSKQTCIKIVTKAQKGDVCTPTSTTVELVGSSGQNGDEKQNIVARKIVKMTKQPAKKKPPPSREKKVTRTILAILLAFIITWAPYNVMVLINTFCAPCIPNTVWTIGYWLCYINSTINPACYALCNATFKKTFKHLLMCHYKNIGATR

Molecules are shown by their SMILES. “And” between values parts separate entries of the source, which are not always exact repeats. Identical values can stand only once.

Muscarinic acetylcholine receptor M3, sequence (P08483 whole entry): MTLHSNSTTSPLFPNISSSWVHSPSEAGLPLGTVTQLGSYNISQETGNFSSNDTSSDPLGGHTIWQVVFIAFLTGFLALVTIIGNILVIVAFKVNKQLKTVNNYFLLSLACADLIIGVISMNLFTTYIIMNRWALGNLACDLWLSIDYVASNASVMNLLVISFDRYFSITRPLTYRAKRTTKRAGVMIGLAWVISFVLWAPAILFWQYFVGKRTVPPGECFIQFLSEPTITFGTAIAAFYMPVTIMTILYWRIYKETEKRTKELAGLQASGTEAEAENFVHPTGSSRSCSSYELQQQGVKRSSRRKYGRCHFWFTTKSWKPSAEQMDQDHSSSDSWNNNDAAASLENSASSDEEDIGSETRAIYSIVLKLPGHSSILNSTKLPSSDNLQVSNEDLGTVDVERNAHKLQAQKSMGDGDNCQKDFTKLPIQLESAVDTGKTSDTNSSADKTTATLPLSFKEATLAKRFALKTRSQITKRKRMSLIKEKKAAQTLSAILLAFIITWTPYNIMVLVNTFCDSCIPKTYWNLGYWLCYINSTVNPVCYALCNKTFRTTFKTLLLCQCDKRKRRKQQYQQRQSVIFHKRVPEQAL

As a reminder, the Ki is the dissociation constant of the complex between target and ligand, obtained from inhibition or displacement. Lower therefore signals tighter binding. Turning to `COc1ccccc1CNCCCCCCNCCCCCCCCNCCCCCCNCc1ccccc1OC` [METHOCTRAMINE], the Ki in assay [1] was 160 nM; in assay [2], 3000 nM; in assay [3] it was 130 nM and 100 nM.
As to `C[C@H]1OC(=O)C2C[C@H]3CCCC[C@@H]3[C@@H](/C=C/[C@@H]3CCC[C@H](C)N3C)C21` (some centres not stated) [HIMBACINE], the Ki was 60 nM in assay [1]; 900 nM in assay [2]; 15 nM in assay [4]; 46 nM and 50 nM in assay [3].
In the case of `C[N+]1(C)CCC(OC(=O)C(c2ccccc2)c2ccccc2)CC1`, the inhibition constant (Ki) in assay [1] was 5.6 nM; in assay [3], 5.2 nM and 5.6 nM.
The compound `CN1CCN(CC(=O)N2c3ccccc3C(=O)Nc3cccnc32)CC1` [11-[(4-methylpiperazin-1-yl)acetyl]-5,11-dihydro-6H-pyrido[2,3-b][1,4]benzodiazepin-6-one] had an inhibitory constant (Ki) in assay [1] of 400 nM.
Turning to `O[Si](CCCN1CCCCC1)(c1ccccc1)C1CCCCC1` (configuration not stated) [HHSiD], the Ki in assay [1] is 100 nM; in assay [2] it was 50 nM; in assay [3], 93 nM and 110 nM.
Turning to `CCN(CC)CC1CCCCN1CC(=O)N1c2ccccc2C(=O)Nc2cccnc21` (configuration not stated) [(AF-DX 116) 11-[2-(2-Diethylaminomethyl-piperidin-1-yl)-acetyl]-5,11-dihydro-benzo[e]pyrido[3,2-b][1,4]diazepin-6-one], the Ki in assay [1] was 1600 nM; in assay [2], 4800 nM; in assay [4], 74 nM; in assay [3], 1700 nM and 1500 nM.

Source of the values: BindingDB's records for PubMed 2385234 (Universit&Eacute, 1990).
